“And” between values parts separate entries of the source, which are not always exact repeats. Equal entries are not always repeated.
Experiments:
[1] = [14C] PLAG radioactivity in blood and lymph fluid; format: in vivo, rats; conditions: single oral [14C] PLAG
Description: Quantification of PLAG in blood and lymph fluid was performed in Mitsubishi Chemical Medicine Corporation (Japan) by radioactivity analysis. [^14C] PLAG was synthesized by the LSI Medience Corporation (Kumamoto, Japan). The specific activities were 348.9 kBq/mg. The purity of the compound was 99.7%. The pharmacokinetics of [^14C] PLAG were determined in Crl: CD (SD) rats (Charles River Laboratories Japan, Inc.). Rats received [^14C] PLAG at 100 mg/5 mL/kg (dosing radioactivity: 5 MBq/kg) via the oral route. To determine radioactivity concentration in lymph fluid, the abdominal large thoracic duct-cannulated animals were fitted with collars while under isoflurane anesthesia and were subjected to the administration at least 30 minutes after collar fitting. […] Each of the collected samples was measured for radioactivity. Blood was collected from the subclavian vein and used to determine the radioactivity. […] Radioactivity was measured by LSC (Tri-Carb 2300TR. Perkin Elmer, Inc) with the tSIE (transformed spectral index of external standard) method for the quenching correction.
Quantification of PLAG in blood and lymph fluid was performed in Mitsubishi Chemical Medicine Corporation (Japan) by radioactivity analysis. […] PLAG were determined in Crl: CD (SD) rats (Charles River Laboratories Japan, Inc.). […] PLAG at 100 mg/5 mL/kg (dosing radioactivity: 5 MBq/kg) via the oral route. […]

[2] = tested on: HMGB1, S100A8, S100A9, LDH in supernatant of THP-1 cells; assay: MSU-induced DAMP and LDH release; format: cell-based, human; conditions: PLAG 100 μg/ml, MSU 400 μg/ml
Description: THP-1 cells were divided into two groups: 1) MSU treated group and 2) MSU/PLAG treated group. For MSU treated group, THP-1 cells were stimulated with monosodium urate (MSU) crystal (400 μg/ml) for 0, 15, 30, 60 minutes. For MSU/PLAG treated group, THP-1 cells were pre-incubated with PLAG (100 μg/ml) for 1 hour and then stimulated with monosodium urate (MSU) crystal (400 μg/ml) for 0, 15, 30, 60 minutes. Then, cells were centrifuged, and the supernatant was harvested. Add 50 μL 5×SDS sample buffer to 200 μL supernatant of THP-1 cells. Proteins from each sample were separated by sodium dodecyl sulfate (SDS)-polyacrylamide gel electrophoresis on 8% polyacrylamide gels and the proteins were blotted onto a PVDF membrane (Millipore Corporation, Germany). The membrane was blocked with 5% non-fat dried milk (BD bioscience) in PBS containing 0.05% Tween-20 (Calbiochem) for 1 hour. The membrane was incubated with anti-high mobility group box 1 (HMGB1) (abcam), anti-S100A9 (abcam) at 4° C. overnight. After washing with PBS containing 0.05% Tween-20, the membrane was stained with goat anti-rabbit IgG peroxidase (ENZO). Target proteins were detected with Immobilon Western Chemiluminescent HRP Substrate (Millipore Corporation). Lactate dehydrogenase (LDH) of Supernatant was measured using the LDH assay kit.

5-FU-induced neutropenia = 5-FU-induced neutropenia in mice; format: in vivo; conditions: for Mean Duration of Neutropenia in Days (±SE, range) / Mean the First Day Neutropenia (ANC <500 cells/μL) (±SE, range): 5-FU 100 mg/kg
Description: Male BALB/c mice (8 weeks of age) were randomly divided into 3 cohorts; control cohort (n=5), EC-18 125 mg/kg-treated cohort (n=5) and EC-18 250 mg/kg (n=5). The mice were intraperitoneally (i.p.) injected once with 100 mg/kg 5-FU to induce neutropenia, as shown in the experimental scheme (FIG. 46A). EC-18 was suspended in phosphate-buffered saline (PBS) and orally administrated at a dose of 125 or 250 mg/kg once a day, starting on the same day of 5-FU injection. The control cohort was administered PBS only during the experiment. The whole blood was collected from the orbital sinuses using EDTA-free capillary tubes (Kimble Chase Life Science and Research Products LLC, FL, USA) and collection tubes containing K3E-K3EDTA (Greiner Bio-One International, Kremsmünster, Austria). The blood cells were counted and classified by complete blood count (CBC) analysis using Mindray BC-5000 auto-hematology analyzer (Shenzhen Mindray Biomedical Electronics, Guangdong Sheng, China).
The results were expressed as the mean±standard deviation (SD). Statistical analysis was performed using a Student's paired t-test and p values <0.05 were considered statistically significant. A […] Log-rank (Mantel-Cox) test was used to compare the duration of neutropenia and time to recovery from neutropenia between control and EC-18-treated cohorts.

Which “PLAG in lymphatic vessel versus blood vessel” value [1] does the source give for `CCCCC/C=C\C/C=C\CCCCCCCC(=O)OC(COC(C)=O)COC(=O)CCCCCCCCCCCCCCC` (racemic) [PLAG, 1-palmitoyl-2-linoleoyl-3-acetylglycerol] here?
Its value is “More PLAG was detected in the lymphatic vessel than blood vessel”.

What about the “time of highest concentration” value ([1]; blood and lymph fluid) of the same molecule?
The value was 8 h.

What about the “release of MSU crystal-induced HMGB1, S100A8, S100A9 and LDH to the supernatant” value [2] of the same molecule?
The value was “modulated the release”.

And the “Mean Duration of Severe Neutropenia in Days (±SE, range)” value (5-FU-induced neutropenia; EC-18 125 mg/kg)?
The value was 2 (6-7) Days.

What about the “Mean Number of Days to Recovery - ANC ≥ 500/μL (±SE, range)” value (5-FU-induced neutropenia; EC-18 125 mg/kg) of the same molecule?
The value was 7.4 ± 0.55 (7-8) Days.

What about the “Mean Number of Days to Recovery - ANC ≥ 1000/μL (±SE, range)” value (5-FU-induced neutropenia; EC-18 125 mg/kg) of the same molecule?
Its value is 8 ± 1.22 (7-10) Days.

And the “Number of Individuals of Severe Neutropenia (ANC <100 cells/μL)” value (5-FU-induced neutropenia; EC-18 125 mg/kg)?
Its value is 1/5.

What about the “Mean Duration of Neutropenia in Days (±SE, range)” value (5-FU-induced neutropenia; EC-18 125 mg/kg) of the same molecule?
Its value is 2.6 ± 0.55 (5-8) Days.

What about the “Mean the First Day Neutropenia (ANC <500 cells/μL) (±SE, range)” value (5-FU-induced neutropenia; EC-18 125 mg/kg) of the same molecule?
The value was 5.8 ± 0.45 (5-6) days.

What about the “Nadir of ANC” value (5-FU-induced neutropenia; EC-18 125 mg/kg, 125 mg/kg) of the same molecule?
Its value is 236±4.47 cells/μL and 236 ± 121.57 cells/μL.

What about the “Mean Duration of Severe Neutropenia in Days (±SE, range)” value (5-FU-induced neutropenia; EC-18 250 mg/kg) of the same molecule?
Its value is 2 (6-7) Days.

What about the “Mean Number of Days to Recovery - ANC ≥ 500/μL (±SE, range)” value (5-FU-induced neutropenia; EC-18 250 mg/kg) of the same molecule?
The value was 7.6 ± 0.55 (7-8) Days.

And the “Mean Number of Days to Recovery - ANC ≥ 1000/μL (±SE, range)” value (5-FU-induced neutropenia; EC-18 250 mg/kg)?
The value was 8.8 ± 1.09 (7-10) Days.

And the “Number of Individuals of Severe Neutropenia (ANC <100 cells/μL)” value (5-FU-induced neutropenia; EC-18 250 mg/kg)?
The value was 1/5.

And the “Mean Duration of Neutropenia in Days (±SE, range)” value (5-FU-induced neutropenia; EC-18 250 mg/kg)?
The value was 3.0 ± 0.71 (5-8) Days.

What about the “Mean the First Day Neutropenia (ANC <500 cells/μL) (±SE, range)” value (5-FU-induced neutropenia; EC-18 250 mg/kg) of the same molecule?
Its value is 5.8 ± 0.45 (5-6) days.

And the “Nadir of ANC” value (5-FU-induced neutropenia; EC-18 250 mg/kg, 250 mg/kg)?
Its value is 158±11.32 cells/μL.

What about the “time of recovery to an ANC≥500 or 1000 cells/μL” value (5-FU-induced neutropenia; EC-18 125 and 250 mg/kg-treated cohorts) of the same molecule?
Its value is “significantly reduced”.

And the “5-FU-induced reduction of blood monocytes” value (5-FU-induced neutropenia; EC-18 125 or 250mpk)?
Its value is “remarkably mitigated”.

What about the “duration of severe neutropenia” value (5-FU-induced neutropenia; EC-18, dose not split in text) of the same molecule?
The value was 2 days.

And the “individuals that experienced severe neutropenia (ANC<100 cells/μL)” value (5-FU-induced neutropenia; both EC-18 125 and 250 mg/kg-treated cohorts)?
The value was 20%.
